The text below walks through data of patent publication US12336981B2, “Compounds and compositions for the inhibition of NAMPT” (Valo Health, Inc., priority 2010, dated 2025).

Assay [1] deals with T1, NAMPT (Homo sapiens, UniProt P43490).
T1 construct: His tag; host or cells: E. coli
Nature of the assay: Biochemical inhibition assay: NAMPT enzymatic reaction, NMN quantified by mass spectrometry. The method, boiled down:
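Inhibition of E. coli-expressed His-tagged human NAMPT, measured as NMN formation by mass spectrometry after a 30 min room-temperature reaction containing 1 μM NAM, 100 μM PRPP and 2.5 mM ATP.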

Assay [2] relates to A2780 cells. Description: In-vitro cell proliferation assay (SRB), A2780 cells. The assay is classed as cell-based. As to conditions: Homo sapiens, A2780, 72 h, A2780 cells, 72 hours, read-out: A2780 IC50. The method, boiled down: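 Proliferation is assessed by sulforhodamine B staining following a 72-hour incubation with compound dilutions containing 0.1% DMSO.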
Where [3] appears, read: NAMPT enzymatic assay, read-out: Biochem IC50.
Setting [4] is: NAMPT enzymatic reaction, read-out: Biochem IC50.

Where two headings read alike, the source gives them in different places.

T1 sequence (P43490 whole entry): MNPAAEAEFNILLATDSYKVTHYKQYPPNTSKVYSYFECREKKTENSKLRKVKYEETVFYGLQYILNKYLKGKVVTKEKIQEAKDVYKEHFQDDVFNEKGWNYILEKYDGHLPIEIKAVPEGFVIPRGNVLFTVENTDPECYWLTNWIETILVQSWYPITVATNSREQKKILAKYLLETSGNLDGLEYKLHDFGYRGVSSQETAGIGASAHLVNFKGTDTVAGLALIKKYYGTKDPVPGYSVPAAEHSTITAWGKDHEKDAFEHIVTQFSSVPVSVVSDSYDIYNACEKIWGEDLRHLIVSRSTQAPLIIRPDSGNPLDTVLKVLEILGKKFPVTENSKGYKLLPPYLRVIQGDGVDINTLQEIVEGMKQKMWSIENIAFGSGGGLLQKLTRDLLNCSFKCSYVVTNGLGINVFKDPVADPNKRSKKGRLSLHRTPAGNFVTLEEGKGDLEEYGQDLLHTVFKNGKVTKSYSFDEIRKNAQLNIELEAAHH

Broadly, the IC50 is the concentration that gives 50% inhibition. Turning to `O=C(NCc1ccc(S(=O)(=O)c2cccc(-c3ccc(F)c(F)c3)n2)cc1)c1ccc2nccn2c1` [N-({4-[6-(3,4-difluorophenyl)pyridine-2-sulfonyl]phenyl}methyl)imidazo[1,2-a]pyridine-6-carboxamide], the figures for the IC50 in assay [1] (setting [3]) and in assay [2] (SRB) were 0.0043 µM and 5.7 nM, respectively.

Take `O=C(NCc1ccc(S(=O)(=O)c2cccc(-c3ccc(F)c(F)c3)n2)cc1)c1cc2ccncc2s1` [N-({4-[6-(3,4-difluorophenyl)pyridine-2-sulfonyl]phenyl}methyl)thieno[2,3-c]pyridine-2-carboxamide]: the values for the half-inhibitory concentration (IC50) in assay [1] (setting [3]) and in assay [2] (SRB) were 0.0022 µM and 13.2 nM, respectively.

For `CN1CCN(c2ccc(S(=O)(=O)c3ccc(CNC(=O)c4cc5cnccc5[nH]4)cc3)cn2)CC1` [N-({4-[6-(4-methylpiperazin-1-yl)pyridine-3-sulfonyl]phenyl}methyl)-1H-pyrrolo[3,2-c]pyridine-2-carboxamide], the IC50 came to 0.006 µM in assay [1] (setting [3]) and 0.6 nM in assay [2] (SRB).

In the case of `CN(C)c1ccc(S(=O)(=O)c2ccc(CNC(=O)c3cnc4[nH]ncc4c3)cc2)cn1` [N-({4-[6-(dimethylamino)pyridine-3-sulfonyl]phenyl}methyl)-1H-pyrazolo[3,4-b]pyridine-5-carboxamide], the concentration for half-maximal inhibition (IC50) in assay [1] (setting [3]) was determined as 0.0305 µM; in assay [2] (SRB), 3.3 nM.

On to `CN(C)c1ccc(S(=O)(=O)c2ccc(CNC(=O)c3cc4cnccc4[nH]3)cc2)cn1` [N-({4-[6-(dimethylamino)pyridine-3-sulfonyl]phenyl}methyl)-1H-pyrrolo[3,2-c]pyridine-2-carboxamide], for which the values for the half-maximal inhibitory concentration (IC50) in assay [1] (setting [3]) and in assay [2] (SRB) were 0.0209 µM and 3.4 nM, respectively.

On to `CN(C)c1ccc(S(=O)(=O)c2ccc(CNC(=O)c3cc4ccncc4o3)cc2)cn1` [N-({4-[6-(dimethylamino)pyridine-3-sulfonyl]phenyl}methyl)furo[2,3-c]pyridine-2-carboxamide], for which the IC50 came to 0.003 µM in assay [1] (setting [3]) and 1.8 nM in assay [2] (SRB).

As to `CN(C)c1ccc(S(=O)(=O)c2ccc(CNC(=O)c3ccc4nccn4c3)cc2)cn1` [N-({4-[6-(dimethylamino)pyridine-3-sulfonyl]phenyl}methyl)imidazo[1,2-a]pyridine-6-carboxamide], the values for the IC50 in assay [1] (setting [3]) and in assay [2] (SRB) were 0.0449 µM and 2.7 nM, respectively.

For `CN(C)c1ccc(S(=O)(=O)c2ccc(CNC(=O)c3cnc4nccn4c3)cc2)cn1` [N-({4-[6-(dimethylamino)pyridine-3-sulfonyl]phenyl}methyl)imidazo[1,2-a]pyrimidine-6-carboxamide], the IC50 came out at 0.0027 µM in assay [1] (setting [3]) and 5.9 nM in assay [2] (SRB).

Consider `CN(C)c1ccc(S(=O)(=O)c2ccc(CNC(=O)c3cc4ccncc4s3)cc2)cn1` [N-({4-[6-(dimethylamino)pyridine-3-sulfonyl]phenyl}methyl)thieno[2,3-c]pyridine-2-carboxamide], for which the IC50 in assay [1] (setting [3]) was 0.001 µM; in assay [2] (SRB) it was 0.6 nM.

As to `O=C(NCc1ccc(S(=O)(=O)c2ccc(N3CCOCC3)nc2)cc1)c1cc2cnccc2[nH]1` [N-({4-[6-(morpholin-4-yl)pyridine-3-sulfonyl]phenyl}methyl)-1H-pyrrolo[3,2-c]pyridine-2-carboxamide], the half-inhibitory concentration (IC50) in assay [1] (setting [3]) is 0.0096 µM; in assay [2] (SRB), 1.5 nM.

For `O=C(NCc1ccc(S(=O)(=O)c2ccc(N3CCOCC3)nc2)cc1)c1cc2ccncc2o1` [N-({4-[6-(morpholin-4-yl)pyridine-3-sulfonyl]phenyl}methyl)furo[2,3-c]pyridine-2-carboxamide], the results for the half-maximal inhibitory concentration (IC50) in assay [1] (setting [3]) and in assay [2] (SRB) were 0.002 µM and 0.9 nM, respectively.

For the compound `O=C(NCc1ccc(S(=O)(=O)c2ccc(N3CCOCC3)nc2)cc1)c1ccc2nccn2c1` [N-({4-[6-(morpholin-4-yl)pyridine-3-sulfonyl]phenyl}methyl)imidazo[1,2-a]pyridine-6-carboxamide], the IC50 in assay [1] (setting [3]) stood at 0.009 µM; in assay [2] (SRB), 1.5 nM.

On to `O=C(NCc1ccc(S(=O)(=O)c2ccc(N3CCOCC3)nc2)cc1)c1cnc2nccn2c1` [N-({4-[6-(morpholin-4-yl)pyridine-3-sulfonyl]phenyl}methyl)imidazo[1,2-a]pyrimidine-6-carboxamide], for which the results for the IC50 in assay [1] (setting [3]) and in assay [2] (SRB) were 0.0011 µM and 3.3 nM, respectively.

On to `O=C(NCc1ccc(S(=O)(=O)c2ccc(N3CCOCC3)nc2)cc1)c1cc2ccncc2s1` [N-({4-[6-(morpholin-4-yl)pyridine-3-sulfonyl]phenyl}methyl)thieno[2,3-c]pyridine-2-carboxamide], for which the figures for the 50% inhibitory concentration (IC50) in assay [1] (Biochem IC50 uM) and in assay [2] (SRB) were 0.0041 µM and 0.7 nM, respectively.

With `O=C(NCc1ccc(S(=O)(=O)c2cccc(C(F)(F)F)n2)cc1)c1cnc2[nH]ncc2c1` [N-({4-[6-(trifluoromethyl)pyridine-2-sulfonyl]phenyl}methyl)-1H-pyrazolo[3,4-b]pyridine-5-carboxamide], the values for the half-maximal inhibitory concentration (IC50) in assay [1] (setting [3]) and in assay [2] (SRB) were 0.0242 µM and 11.1 nM, respectively.

For the compound `O=C(NCc1ccc(S(=O)(=O)c2cccc(C(F)(F)F)n2)cc1)c1cc2ccncc2o1` [N-({4-[6-(trifluoromethyl)pyridine-2-sulfonyl]phenyl}methyl)furo[2,3-c]pyridine-2-carboxamide], the half-maximal inhibitory concentration (IC50) came out at 0.005 µM in assay [1] (setting [3]) and 3.1 nM in assay [2] (SRB).

As to `O=C(NCc1ccc(S(=O)(=O)c2cccc(C(F)(F)F)n2)cc1)c1ccc2nccn2c1` [N-({4-[6-(trifluoromethyl)pyridine-2-sulfonyl]phenyl}methyl)imidazo[1,2-a]pyridine-6-carboxamide], the IC50 in assay [1] (setting [3]) was 0.0087 µM; in assay [2] (SRB) it was 1.5 nM.

As to `O=C(NCc1ccc(S(=O)(=O)c2cccc(C(F)(F)F)n2)cc1)c1cnc2nccn2c1` [N-({4-[6-(trifluoromethyl)pyridine-2-sulfonyl]phenyl}methyl)imidazo[1,2-a]pyrimidine-6-carboxamide], the results for the IC50 in assay [1] (setting [3]) and in assay [2] (SRB) were 0.0114 µM and 20.4 nM, respectively.

As to `O=C(NCc1ccc(S(=O)(=O)c2cccc(C(F)(F)F)n2)cc1)c1cc2ccncc2s1` [N-({4-[6-(trifluoromethyl)pyridine-2-sulfonyl]phenyl}methyl)thieno[2,3-c]pyridine-2-carboxamide], the half-inhibitory concentration (IC50) in assay [1] (setting [3]) is 0.0021 µM; in assay [2] (SRB), 2.2 nM.

On to `O=C(NCc1ccc(S(=O)(=O)c2ccc(C(F)(F)F)nc2)cc1)c1cc2ccncc2s1` [N-({4-[6-(trifluoromethyl)pyridine-3-sulfonyl]phenyl}methyl)thieno[2,3-c]pyridine-2-carboxamide], for which the IC50 in assay [1] (setting [3]) came to 0.0076 µM; in assay [2] (SRB) it was 6.7 nM.

Consider `O=C(NCc1ccc(S(=O)(=O)Nc2cccc3c(=O)occc23)cc1)c1cc2cnccc2[nH]1` [N-({4-[(1-oxo-1H-isochromen-5-yl)sulfamoyl]phenyl}methyl)-1H-pyrrolo[3,2-c]pyridine-2-carboxamide], for which the half-inhibitory concentration (IC50) in assay [1] (setting [4]) stood at 0.008 µM; in assay [2] (SRB assay), 2270 nM.

With `O=C(NCc1ccc(S(=O)(=O)Nc2ccc3cn[nH]c3c2)cc1)c1cc2cnccc2[nH]1` [N-({4-[(1H-indazol-6-yl)sulfamoyl]phenyl}methyl)-1H-pyrrolo[3,2-c]pyridine-2-carboxamide], the IC50 in assay [1] (setting [4]) was 0.135 µM; in assay [2] (SRB assay) it was 5440 nM.

With `COc1ccc(OC)c(S(=O)(=O)c2ccc(CNC(=O)c3cnc4[nH]ncc4c3)cc2)c1OC` [N-({4-[(2,3,6-trimethoxybenzene)sulfonyl]phenyl}methyl)-1H-pyrazolo[3,4-b]pyridine-5-carboxamide], the values for the IC50 in assay [1] (setting [4]) and in assay [2] (SRB) were 0.0797 µM and 66.3 nM, respectively.

`COc1ccc(OC)c(S(=O)(=O)c2ccc(CNC(=O)c3cc4ccncc4s3)cc2)c1OC` [N-({4-[(2,3,6-trimethoxybenzene)sulfonyl]phenyl}methyl)thieno[2,3-c]pyridine-2-carboxamide]: the IC50 in assay [1] (setting [3]) came to 0.012 µM; in assay [2] (SRB), 5.5 nM.

As to `COc1ccc(F)c(F)c1S(=O)(=O)c1ccc(CNC(=O)c2cc3cnccc3[nH]2)cc1` [N-({4-[(2,3-difluoro-6-methoxybenzene)sulfonyl]phenyl}methyl)-1H-pyrrolo[3,2-c]pyridine-2-carboxamide], the half-maximal inhibitory concentration (IC50) in assay [1] (setting [4]) was 0.204 µM; in assay [2] (SRB), 84.9 nM.

Consider `O=C(NCc1ccc(S(=O)(=O)Nc2ccc3c(c2)OCCO3)cc1)c1cc2cnccc2[nH]1` [N-({4-[(2,3-dihydro-1,4-benzodioxin-6-yl)sulfamoyl]phenyl}methyl)-1H-pyrrolo[3,2-c]pyridine-2-carboxamide], for which the IC50 in assay [1] (setting [4]) was more than 10 µM; in assay [2] (SRB assay) it was more than 10000 nM.

In the case of `COc1cc(C)cc(S(=O)(=O)c2ccc(CNC(=O)c3cc4cnccc4[nH]3)cc2)c1OC` [N-({4-[(2,3-dimethoxy-5-methylbenzene)sulfonyl]phenyl}methyl)-1H-pyrrolo[3,2-c]pyridine-2-carboxamide], the 50% inhibitory concentration (IC50) in assay [1] (setting [3]) is 0.01 µM; in assay [2] (SRB), 2 nM.

In the case of `COc1cc(C)cc(S(=O)(=O)c2ccc(CNC(=O)c3cc4ccncc4s3)cc2)c1OC` [N-({4-[(2,3-dimethoxy-5-methylbenzene)sulfonyl]phenyl}methyl)thieno[2,3-c]pyridine-2-carboxamide], the results for the 50% inhibitory concentration (IC50) in assay [1] (setting [3]) and in assay [2] (SRB) were 0.006 µM and 2.7 nM, respectively.

As to `COc1cccc(S(=O)(=O)c2ccc(CNC(=O)c3cnc4[nH]ncc4c3)cc2)c1OC` [N-({4-[(2,3-dimethoxybenzene)sulfonyl]phenyl}methyl)-1H-pyrazolo[3,4-b]pyridine-5-carboxamide], the concentration for half-maximal inhibition (IC50) in assay [1] (setting [4]) is 0.123 µM; in assay [2] (SRB), 83.3 nM.

Turning to `COc1cccc(S(=O)(=O)c2ccc(CNC(=O)c3ccc4nccn4c3)cc2)c1OC` [N-({4-[(2,3-dimethoxybenzene)sulfonyl]phenyl}methyl)imidazo[1,2-a]pyridine-6-carboxamide], the 50% inhibitory concentration (IC50) is 0.0687 µM in assay [1] (setting [4]) and 24.9 nM in assay [2] (SRB).

With `COc1cccc(S(=O)(=O)c2ccc(CNC(=O)c3cc4ccncc4s3)cc2)c1OC` [N-({4-[(2,3-dimethoxybenzene)sulfonyl]phenyl}methyl)thieno[2,3-c]pyridine-2-carboxamide], the IC50 in assay [1] (setting [3]) came to 0.009 µM; in assay [2] (SRB) it was 3.4 nM.
